From patent publication US10065927B2, “α-ketoacylic isoniazid compounds, process for producing said compounds, use of the compounds in the treatment of tuberculosis” (priority 2015, dated 2018)
Converted amounts (≈) assume the structure as drawn. “Also recorded” adds a separate entry of the source. Where two headings read alike, the source gives them in different places.

Tests used:
[1] = test system: Mycobacterium tuberculosis strain H37Rv ATCC 27294; assay: Antimycobacterial evaluation, MIC by microplate Alamar Blue Assay, retested by BACTEC MGIT 960-TB; assay type: cell-based; conditions: for MIC: M. tuberculosis strain H37Rv ATCC 27294, sensitive to first-choice drugs; for antimycobacterial activity (in words): against M. tuberculosis
[2] = test system: J77-4 lineage murine macrophages; assay type: cell-based; conditions: mouse
Experimental: The cytotoxicity evaluation of compound 2 was performed with J77-4 lineage murine macrophages.

[3] = Mycobacterium tuberculosis, read-out: MIC
[4] = strains sensitive to first-choice drugs

Compound: CC(=O)NNC(=O)c1ccncc1 [2-acetylisomide, 2-acetylisoniazide, reference compound]
- MIC [1]: Inactive
- antimycobacterial activity (in words) [1]: did not show antimycobacterial activity

Compound: CC(=O)Nc1ccccc1C(=O)C(=O)NNC(=O)c1ccncc1 [Compound 2, N-(2-(2-(2-Isonicotinoylhydrazine)-2-Oxoacetyl)Phenyl) Acetamide]
- MIC [1, 3]: 0.37 µM (≈ 0.121 µg/mL)
- antimycobacterial activity (in words) [1]: antimycobacterial activity superior to all the first-choice drugs; also recorded: higher potency than all the first-choice drugs
- activity relative to pyrazinamide [1, 4]: almost two thousand and two hundred times more active than pyrazinamide
- potency relative to ethambutol [1, 4]: more than forty times more potent than ethambutol
- potency relative to isoniazid [1, 4]: twice as potent as isoniazid
- potency relative to rifampicin [1, 4]: more than three times more potent than rifampicin
- Cell Viability (%) ([2]; 1 nM): 96.8%
- Cell Viability (%) ([2]; 10 nM): 97.8%
- Cell Viability (%) ([2]; 100 nM): 97.9%
- Cell Viability (%) [2]; 1: 97.4%
- Cell Viability (%) [2]; 10: 97.3%
- Cell Viability (%) [2]; 100: 98.2%

Compound: O=C(NNC(=O)c1ccncc1)C(=O)c1ccccc1NC(=O)c1ccccc1 [Compound 4, reference compound]
- MIC ([1]; read-out: MIC): 8.04 µM (≈ 3.12 µg/mL)
- antimycobacterial activity (in words) [1]: did not show good activity

Compound: CC[C@@H](CO)NCCN[C@@H](CC)CO [Etambutol, ethambutol, reference compound]
- MIC [1, 3]: 15.9 µM (≈ 3.25 µg/mL)

Compound: NNC(=O)c1ccncc1 [Isoniazid]
- MIC [1, 3]: 0.73 µM (≈ 0.1 µg/mL)

Compound: NC(=O)c1cnccn1 [Pyrazinamide, reference compound]
- MIC [1, 3]: 813 µM (≈ 100 µg/mL)
